# Data published in US8952024B2, “Herbicidal pyrimidone derivatives” (E I du Pont de Nemours and Company, priority 2009, dated 2015).
# How the values were obtained:
# Type in all cases: in vivo
# [1] = system: soybean (Glycine max); experiment: Test B pre-/postemergence plant response; details: Postemergence
# Description: (§1) Seeds of plant species selected from blackgrass (Alopecurus myosuroides), downy bromegrass (Bromus tectorum), green foxtail (Setaria viridis), Italian ryegrass (Lolium multiflorum), wheat (Triticum aestivum), wild oat (Avena fatua), deadnettle (henbit deadnettle, Lamium amplexicaule), galium (catchweed bedstraw, Galium aparine), bermudagrass (Cynodon dactylon), Surinam grass (Brachiaria decumbens), cocklebur (Xanthium strumarium), corn (Zea mays), large crabgrass (Digitaria sanguinalis), woolly cupgrass (Eriochloa villosa), giant foxtail (Setaria faberii), goosegrass (Eleusine indica), johnsongrass (Sorghum halepense), kochia (Kochia scoparia), lambsquarters (Chenopodium album), morningglory (Ipomoea coccinea), nightshade (eastern black nightshade, Solanum ptycanthum), yellow nutsedge (Cyperus esculentus), pigweed (Amaranthus retroflexus), ragweed (common ragweed, Ambrosia elatior), Russian thistle (Salsola kali), soybean (Glycine max), sunflower (common oilseed sunflower, Helianthus annuus) and velvetleaf (Abutilon theophrasti) were planted into a blend of loam soil and sand and treated preemergence with test compounds formulated in a non-phytotoxic solvent mixture which included a surfactant.
# (§2) At the same time, plants selected from these crop and weed species and also winter barley (Hordeum vulgare), canarygrass (Phalaris minor), chickweed (Stellaria media) and windgrass (Apera spica-venti) were planted in pots containing Redi-Earth® planting medium (Scotts Company, 14111 Scottslawn Road, Marysville, Ohio 43041) comprising spaghnum peat moss, vermiculite, wetting agent and starter nutrients and treated with postemergence applications of some of the test chemicals formulated in the same manner. Plants ranged in height from 2 to 18 cm (1- to 4-leaf stage) for postemergence treatments.
# (§3) Treated plants and controls were maintained in a greenhouse for 13 to 15 days, after which time all treated plants were visually evaluated and compared to controls. Plant response ratings, summarized in Table B, are based on a scale of 0 to 100 where 0 is no effect and 100 is complete control. A dash (-) response means no test result.
# [2] = system: Italian ryegrass (Lolium multiflorum); experiment: Test B pre-/postemergence plant response; details: Postemergence
# Description: as §1, §2, §3
# [3] = system: corn (Zea mays); experiment: Test B pre-/postemergence plant response; details: Postemergence
# Description: as §1, §2, §3
# [4] = system: bermudagrass (Cynodon dactylon); experiment: Test B pre-/postemergence plant response; details: Postemergence
# Description: as §1, §2, §3
# [5] = system: morningglory (Ipomoea coccinea); experiment: Test B pre-/postemergence plant response; details: Postemergence
# Description: as §1, §2, §3
# [6] = system: blackgrass (Alopecurus myosuroides); experiment: Test B pre-/postemergence plant response; details: Postemergence
# Description: as §1, §2, §3
# [7] = system: Surinam grass (Brachiaria decumbens); experiment: Test B pre-/postemergence plant response; details: Postemergence
# Description: as §1, §2, §3
# [8] = system: ragweed (common ragweed, Ambrosia elatior); experiment: Test B pre-/postemergence plant response; details: Postemergence
# Description: as §1, §2, §3
# [9] = system: cocklebur (Xanthium strumarium); experiment: Test B pre-/postemergence plant response; details: Postemergence
# Description: as §1, §2, §3
# [10] = system: rice (Oryza sativa); experiment: Test B flooded paddy test; details: Oryza sativa
# Method in brief: (§4)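 Ratings are visual, 0–100 (100 = complete control), taken versus untreated controls 13 to 15 days after treatment in the greenhouse. Compound went straight into paddy water held 3 cm above soil, applied to 2-leaf-stage plants of four species.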
# [11] = system: umbrella sedge (Cyperus difformis); experiment: Test B flooded paddy test; details: Cyperus difformis, 360 h
# Method in brief: as §4
# [12] = system: barnyardgrass (Echinochloa crus-galli); experiment: Test B flooded paddy test; details: Echinochloa crus-galli, 360 h
# Method in brief: as §4
# [13] = system: ducksalad (Heteranthera limosa); experiment: Test B flooded paddy test; details: Heteranthera limosa, 360 h
# Method in brief: as §4
compound,measurement,setting,value
"COc1ccc(-n2c(-c3ccccc3)ncc(C(=O)C3=C(O)CCCC3=O)c2=O)cc1 [Compound 4, 5-[(2-hydroxy-6-oxo-cyclohexen-1-yl)carbonyl]-3-(4-methoxyphenyl)-2-phenyl-4(3H)-pyrimidinone]",plant injury at 31 g/ha,"[1]; Glycine max, post-emergence, 31 g ai/ha, scale 0 to 100 (0 no effect, 100 complete control), read-out: Plant response rating, Soybean",95%
same,plant injury at 62 g/ha,"[1]; Glycine max, post-emergence, 62 g ai/ha, scale 0 (no effect) to 100 (complete control), 13 to 15 days, read-out: Plant response rating, Soybean",100%
same,plant injury at 125 g/ha,"[1]; Glycine max, post-emergence, 125 g ai/ha, visual rating after 13 to 15 days, scale 0 (no effect) to 100 (complete control)",100%
same,Soybean plant response rating,"[1]; 250 g ai/ha, scale 0 to 100",100
same,pest or weed control at 31 g/ha,"[2]; Lolium multiflorum, post-emergence, 31 g ai/ha, scale 0 to 100 (0 no effect, 100 complete control), read-out: Plant response rating, Ryegrass, Italian",10%
same,pest or weed control at 62 g/ha,"[2]; Lolium multiflorum, post-emergence, 62 g ai/ha, scale 0 (no effect) to 100 (complete control), 13 to 15 days, read-out: Plant response rating, Ryegrass, Italian",10%
same,pest or weed control at 125 g/ha,"[2]; Lolium multiflorum, post-emergence, 125 g ai/ha, visual rating after 13 to 15 days, scale 0 (no effect) to 100 (complete control)",15%
same,"Ryegrass, Italian plant response rating","[2]; 250 g ai/ha, scale 0 to 100",20
same,Corn plant response rating,"[3]; 250 g ai/ha, scale 0 to 100",85
same,"Corn plant response rating (crop injury, 0 = no effect, 100 = complete kill) at 31 g/ha","[3]; Zea mays, post-emergence, 31 g ai/ha, scale 0 to 100 (0 no effect, 100 complete control)",10%
same,"Corn plant response rating (crop injury, 0 = no effect, 100 = complete kill) at 62 g/ha","[3]; Zea mays, post-emergence, 62 g ai/ha, scale 0 (no effect) to 100 (complete control), 13 to 15 days",25%
same,"Corn plant response rating (crop injury, 0 = no effect, 100 = complete kill) at 125 g/ha","[3]; Zea mays, post-emergence, 125 g ai/ha, visual rating after 13 to 15 days, scale 0 (no effect) to 100 (complete control)",50%
same,pest or weed control at 31 g/ha,"[4]; Cynodon dactylon, post-emergence, 31 g ai/ha, scale 0 to 100 (0 no effect, 100 complete control), read-out: Plant response rating, Bermudagrass",15%
same,pest or weed control at 62 g/ha,"[4]; Cynodon dactylon, post-emergence, 62 g ai/ha, scale 0 (no effect) to 100 (complete control), 13 to 15 days, read-out: Plant response rating, Bermudagrass",85%
same,pest or weed control at 125 g/ha,"[4]; Cynodon dactylon, post-emergence, 125 g ai/ha, scale 0 to 100 (0 no effect, 100 complete control), 13 to 15 days, read-out: Plant response rating, Bermudagrass",85%
same,Bermudagrass plant response rating,"[4]; 250 g ai/ha, scale 0 to 100",100
same,pest or weed control at 31 g/ha,"[5]; Ipomoea, post-emergence, 31 g ai/ha, scale 0 to 100 (0 no effect, 100 complete control), read-out: Plant response rating, Morningglory",60%
same,pest or weed control at 62 g/ha,"[5]; Ipomoea, post-emergence, 62 g ai/ha, scale 0 (no effect) to 100 (complete control), 13 to 15 days, read-out: Plant response rating, Morningglory",85%
same,pest or weed control at 125 g/ha,"[5]; Ipomoea, post-emergence, 125 g ai/ha, visual rating after 13 to 15 days, scale 0 (no effect) to 100 (complete control)",90%
same,Morningglory plant response rating,"[5]; 250 g ai/ha, scale 0 to 100",95
same,pest or weed control at 31 g/ha,"[6]; Alopecurus myosuroides, post-emergence, 360 h, 31 g ai/ha, scale 0 to 100 (0 no effect, 100 complete control), read-out: Plant response rating, Blackgrass",10%
same,pest or weed control at 62 g/ha,"[6]; Alopecurus myosuroides, post-emergence, 360 h, 62 g ai/ha, scale 0 (no effect) to 100 (complete control), 13 to 15 days, read-out: Plant response rating, Blackgrass",20%
same,pest or weed control at 125 g/ha,"[6]; Alopecurus myosuroides, post-emergence, 360 h, 125 g ai/ha, visual rating after 13 to 15 days, scale 0 (no effect) to 100 (complete control)",30%
same,Blackgrass plant response rating,"[6]; 250 g ai/ha, scale 0 to 100",50
same,Surinam Grass plant response rating,"[7]; 250 g ai/ha, scale 0 to 100",90
same,pest or weed control at 31 g/ha,"[7]; Urochloa decumbens, post-emergence, 31 g ai/ha, scale 0 to 100 (0 no effect, 100 complete control), read-out: Plant response rating, Surinam Grass",60%
same,pest or weed control at 62 g/ha,"[7]; Urochloa decumbens, post-emergence, 62 g ai/ha, scale 0 (no effect) to 100 (complete control), 13 to 15 days, read-out: Plant response rating, Surinam Grass",70%
same,pest or weed control at 125 g/ha,"[7]; Urochloa decumbens, post-emergence, 125 g ai/ha, visual rating after 13 to 15 days, scale 0 (no effect) to 100 (complete control)",75%
same,pest or weed control at 31 g/ha,"[8]; Ambrosia artemisiifolia, post-emergence, 360 h, 31 g ai/ha, scale 0 to 100 (0 no effect, 100 complete control), read-out: Plant response rating, Ragweed",100%
same,pest or weed control at 62 g/ha,"[8]; Ambrosia artemisiifolia, post-emergence, 360 h, 62 g ai/ha, scale 0 (no effect) to 100 (complete control), 13 to 15 days, read-out: Plant response rating, Ragweed",100%
same,pest or weed control at 125 g/ha,"[8]; Ambrosia artemisiifolia, post-emergence, 360 h, 125 g ai/ha, visual rating after 13 to 15 days, scale 0 (no effect) to 100 (complete control)",100%
same,Ragweed plant response rating,"[8]; 250 g ai/ha, scale 0 to 100",100
same,Cocklebur plant response rating,"[9]; 250 g ai/ha, scale 0 to 100",100
same,pest or weed control at 31 g/ha,"[9]; Xanthium strumarium, post-emergence, 31 g ai/ha, scale 0 to 100 (0 no effect, 100 complete control), read-out: Plant response rating, Cocklebur",100%
same,pest or weed control at 62 g/ha,"[9]; Xanthium strumarium, post-emergence, 62 g ai/ha, scale 0 (no effect) to 100 (complete control), 13 to 15 days, read-out: Plant response rating, Cocklebur",100%
same,pest or weed control at 125 g/ha,"[9]; Xanthium strumarium, post-emergence, 125 g ai/ha, visual rating after 13 to 15 days, scale 0 (no effect) to 100 (complete control)",100%
same,plant injury at 250 g/ha,"[10]; 250 g ai/ha, flooded paddy test, visual rating on 0 to 100 scale (0 no effect, 100 complete control) after 13 to 15 days, read-out: Plant response rating, Flood, Rice",0%
same,plant injury at 31 g/ha,"[10]; Flood (flooded paddy test), 31 g ai/ha, scale of 0 to 100 where 0 is no effect and 100 is complete control, 13 to 15 days, read-out: Plant response rating, Rice",0%
same,plant injury at 62 g/ha,"[10]; Flood (flooded paddy test), 62 g ai/ha, scale 0 to 100, 0 is no effect, 100 is complete control, 13 to 15 days, read-out: Plant response rating, Rice",0%
same,plant injury at 125 g/ha,"[10]; Flood (flooded paddy test), 125 g ai/ha, scale 0 to 100, 0 is no effect, 100 is complete control, 13 to 15 days, read-out: Plant response rating, Rice",0%
same,pest or weed control at 250 g/ha,"[11]; 250 g ai/ha, flooded paddy test, visual rating on 0 to 100 scale (0 no effect, 100 complete control) after 13 to 15 days, read-out: Plant response rating, Flood, Sedge, Umbrella",90%
same,pest or weed control at 31 g/ha,"[11]; Flood (flooded paddy test), 31 g ai/ha, scale of 0 to 100 where 0 is no effect and 100 is complete control, 13 to 15 days, read-out: Plant response rating, Sedge, Umbrella",50%
same,pest or weed control at 62 g/ha,"[11]; Flood (flooded paddy test), 62 g ai/ha, scale 0 to 100, 0 is no effect, 100 is complete control, 13 to 15 days, read-out: Plant response rating, Sedge, Umbrella",65%
same,pest or weed control at 125 g/ha,"[11]; Flood (flooded paddy test), 125 g ai/ha, scale 0 to 100, 0 is no effect, 100 is complete control, 13 to 15 days, read-out: Plant response rating, Sedge, Umbrella",80%
same,pest or weed control at 250 g/ha,"[12]; 250 g ai/ha, flooded paddy test, visual rating on 0 to 100 scale (0 no effect, 100 complete control) after 13 to 15 days, read-out: Plant response rating, Flood, Barnyardgrass",20%
same,pest or weed control at 31 g/ha,"[12]; Flood (flooded paddy test), 31 g ai/ha, scale of 0 to 100 where 0 is no effect and 100 is complete control, 13 to 15 days, read-out: Plant response rating, Barnyardgrass",0%
same,pest or weed control at 62 g/ha,"[12]; Flood (flooded paddy test), 62 g ai/ha, scale 0 to 100, 0 is no effect, 100 is complete control, 13 to 15 days, read-out: Plant response rating, Barnyardgrass",0%
same,pest or weed control at 125 g/ha,"[12]; Flood (flooded paddy test), 125 g ai/ha, scale 0 to 100, 0 is no effect, 100 is complete control, 13 to 15 days, read-out: Plant response rating, Barnyardgrass",0%
same,pest or weed control at 250 g/ha,"[13]; 250 g ai/ha, flooded paddy test, visual rating on 0 to 100 scale (0 no effect, 100 complete control) after 13 to 15 days, read-out: Plant response rating, Flood, Ducksalad",85%
same,pest or weed control at 31 g/ha,"[13]; Flood (flooded paddy test), 31 g ai/ha, scale of 0 to 100 where 0 is no effect and 100 is complete control, 13 to 15 days, read-out: Plant response rating, Ducksalad",20%
same,pest or weed control at 62 g/ha,"[13]; Flood (flooded paddy test), 62 g ai/ha, scale 0 to 100, 0 is no effect, 100 is complete control, 13 to 15 days, read-out: Plant response rating, Ducksalad",40%
same,pest or weed control at 125 g/ha,"[13]; Flood (flooded paddy test), 125 g ai/ha, scale 0 to 100, 0 is no effect, 100 is complete control, 13 to 15 days, read-out: Plant response rating, Ducksalad",75%
